Measured values published in US20070048250A1, “Methods of treating concomitant constipation in a cancer treatment regimen including imexon” (AmpliMed Corporation, priority 2005, published 2007).

Tests used:
[1] = combined with cisplatin, dacarbazine, melphalan, cytarabine, 5-fluorouracil, gemcitabine, or docetaxel; cited from earlier work
transplanted tumors = conditions: in vivo; cited from earlier work
[2] = test system: fresh human tumor cell lines; conditions: cited from earlier work
[3] = test system: gastrointestinal transit of a charcoal meal; assay: GLP study, gastrointestinal transit of a charcoal meal in rats; assay type: in vivo; conditions: intravenous, 100 mg/kg
Description: Following the unexpected identification of constipation toxicities in patients being treated with imexon in a cancer treatment regimen, a GLP (good laboratory practices) study was undertaken to evaluate the effects of imexon on the gastrointestinal transit of a charcoal meal in rats.

cancer patients = conditions: phase I; cited from earlier work
human tumor cell lines = conditions: cited from earlier work
[4] = test system: human lymphoma, melanoma, and prostate cancer cell lines; conditions: mouse, in vivo; cited from earlier work
mast cell tumors = conditions: dog, in vivo; cited from earlier work

effect on gastric emptying [3]: reduction in gastric emptying
SMILES: N=C1NC(=O)N2CC12 (centres unmarked) [imexon, 4-imino-1,3-diazabicyclo[3.1.0]-hexan-2-one]
effect of combination [1]: synergistic therapeutic cytotoxic effect
activity against a variety of transplanted tumors in rodents (transplanted tumors): active
activity against fresh human tumor cell lines in clonogenic assay [2]: active
cytotoxicity to multiple myeloma in the clonogenic assay ([2]; multiple myeloma): selective cytotoxicity
effect on gastrointestinal transit [3]: statistically significant inhibition of gastrointestinal transit
clinical response (cancer patients): produced objective responses or stabilized neoplastic diseases
tolerability (cancer patients): well tolerated
activity against a variety of human tumor cell lines in culture (human tumor cell lines): active
activity against human lymphoma, melanoma, and prostate cancer cell lines in SCID mice [4]: active
tumor response in dogs with mast cell tumors (mast cell tumors): Objective responses have been observed
